Among the data in patent US20230357179A1, “RAF KINASE INHIBITORS AND METHODS OF USE THEREOF” (Deciphera Pharmaceuticals, LLC, priority 2021, published 2023) are IC50 values, retold here.

In one experiment the target is T1, A-Raf kinase (Homo sapiens, UniProt P10398, Y301D/Y302D).
T1 construct: purchased Sigma
Put plainly: Biochemical assay for A-Raf.1 (coupled pyruvate kinase/lactate dehydrogenase). Particulars: read-out: ARAF.1 IC50. The protocol: Biochemical assay for A-Raf.1
(§1) Activity of A-Raf kinase (SEQ. ID NO. 1) was determined spectroscopically using a coupled pyruvate kinase/lactate dehydrogenase assay that continuously monitors the ATP hydrolysis-dependent oxidation of NADH (e.g., Schindler et al., Science, 2000, 289, 1938-1942). Assays were conducted in 384-well plates (100 μL final volume) using 5.55 nM A-Raf (Sigma), 1.5 units pyruvate kinase, 2.1 units lactate dehydrogenase, 1 mM phosphoenol pyruvate, 0.28 mM NADH, 30.1 nM MEK (SignalChem), and 1 mM ATP in assay buffer (100 mM Tris, pH 7.5, 15 mM MgCl2, 0.5 mM DTT, 0.1% octyl-glucoside, 0.002% (w/v) BSA, and 0.002% Triton X-100). Inhibition of A-Raf was measured by adding serial diluted test compound (final assay concentration of 1% DMSO). A decrease in absorption at 340 nm was monitored continuously for 6 h at 30° C. on a multi-mode microplate reader (BioTek). The reaction rate was calculated using the 4 to 5 h time frame. The reaction rate at each concentration of compound was converted to percent inhibition using controls (i.e., reaction with no test compound and reaction with a known inhibitor) and IC50 values were calculated by fitting a four-parameter sigmoidal curve to the data using Prism (GraphPad software).

The target in a further experiment is T2, B-Raf kinase (Homo sapiens, UniProt P15056).
T2 construct: GST (N); purchased Sigma
T2 sequence (P15056 416-766): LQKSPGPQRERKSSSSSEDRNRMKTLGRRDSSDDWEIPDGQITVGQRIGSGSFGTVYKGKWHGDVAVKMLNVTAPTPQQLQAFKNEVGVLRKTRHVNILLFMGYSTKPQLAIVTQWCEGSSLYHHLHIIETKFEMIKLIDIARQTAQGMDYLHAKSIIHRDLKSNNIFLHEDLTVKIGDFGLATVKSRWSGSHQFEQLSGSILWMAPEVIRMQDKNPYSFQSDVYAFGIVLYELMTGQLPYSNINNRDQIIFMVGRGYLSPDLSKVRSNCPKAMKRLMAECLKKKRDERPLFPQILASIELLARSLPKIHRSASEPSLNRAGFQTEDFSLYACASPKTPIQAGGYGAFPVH
The experiment can be described thus: Biochemical assay for B-Raf.1 (coupled pyruvate kinase/lactate dehydrogenase). Particulars: read-out: BRAF.1 IC50. How it is done: Biochemical Assay for B-Raf.1
as §1, with “B-Raf” for “A-Raf”, “NO: 2)” for “NO. 1)”, “0.13” for “5.55”

A further experiment addresses T3, C-Raf kinase (Homo sapiens, UniProt P04049, Y340D/Y341D).
T3 construct: Y340D,; GST (N); purchased Sigma
The experiment can be described thus: Biochemical assay for C-Raf.1 (coupled pyruvate kinase/lactate dehydrogenase). Particulars: read-out: CRAF.1 IC50. The protocol: Biochemical Assay for C-Raf.1
as §1, with “C-Raf” for “A-Raf”, “NO: 3)” for “NO. 1)”, “0.43” for “5.55”

A further experiment deals with T4, B-Raf (V600E) kinase (Homo sapiens, UniProt P15056, V600E).
T4 construct: B-Raf (V600E) residues 416-766 with a; GST (N); purchased SignalChem
T4 sequence (P15056 416-766 V600E): as the sequence (P15056 416-766) above, with V185E counted along it
The experiment can be described thus: Biochemical assay for B-Raf (V600E).1 (coupled pyruvate kinase/lactate dehydrogenase). Particulars: read-out: BRAF V600E.1 IC50. How it is done:
Biochemical Assay for B-Raf (V600E).1
Activity of B-Raf (V600E) (SEQ. ID NO: 4) kinase was determined spectroscopically using a coupled pyruvate kinase/lactate dehydrogenase assay that continuously monitors the ATP hydrolysis-dependent oxidation of NADH (e.g., Schindler et al., Science, 2000, 289, 1938-1942). Assays were conducted in 384-well plates (100 μL final volume) using 0.03 nM B-Raf (SignalChem), 1.5 units pyruvate kinase, 2.1 units lactate dehydrogenase, 1 mM phosphoenol pyruvate, 0.28 mM NADH, 30.1 nM MEK (SignalChem), and 1 mM ATP in assay buffer (100 mM Tris, pH 7.5, 15 mM MgCl2, 0.5 mM DTT, 0.1% octyl-glucoside, 0.002% (w/v) BSA, and 0.002% Triton X-100). Inhibition of B-Raf (V600E) was measured by adding serial diluted test compound (final assay concentration of 1% DMSO). A decrease in absorption at 340 nm was monitored continuously for 6 h at 30° C. on a multi-mode microplate reader (BioTek). The reaction rate was calculated using the 3 to 4 h time frame. The reaction rate at each concentration of compound was converted to percent inhibition using controls (i.e., reaction with no test compound and reaction with a known inhibitor) and IC50 values were calculated by fitting a four-parameter sigmoidal curve to the data using Prism (GraphPad software).

The next experiment deals with A375 cells. Put plainly: A375 cell proliferation assay (1), resazurin, 96-well. It counts as cell-based. Conditions: Homo sapiens, A-375, inhibition of cell proliferation. The protocol: A375 Cell Proliferation Assay (1)
A375 cells (catalog (#CRL-1619) are obtained from the American Type Culture Collect (ATTC, Manassas, VA). Briefly, cells were grown in DMEM High Glucose supplemented with 10% characterized fetal bovine serum (Invitrogen, Carlsbad, CA) and 1% Penicillin/Streptomycin/L-Glutamine at 37° C., 5% CO2, and 95% humidity. Cells are expanded until reaching 70-95% confluency at which point they are sub-cultured or harvested for assay use. A serial dilution of test compound is dispensed into a 96-well black clear bottom plate in triplicate. Two thousand five hundred cells are added per well in 200 μL complete growth medium in the 96-well plate. Plates are incubated for 67-72 hours at 37° C., 5% CO2, and 95% humidity. At the end of the incubation, 40 μL of a 440 μM solution of resazurin (Sigma, St. Louis, MO) in PBS is added to each well of the plate and plates are incubated for an additional 5-6 hours at 37° C., 5% CO2, and 95% humidity. Plates are read on a Synergy2 or equivalent reader (Biotek, Winooski VT) using an excitation of 540 nm and an emission of 600 nm. Data is analyzed using Prism software (GraphPad, San Diego, CA) to calculate IC50 values.
In general terms: Alamar Blue is a resazurin reagent that responds to reducing activity.

pIC50: −log10 of the molar value. Where only a bound is given, the exact number is not on record here.

T1 sequence (P10398 with tags, fused parts or gaps Y301D/Y302D): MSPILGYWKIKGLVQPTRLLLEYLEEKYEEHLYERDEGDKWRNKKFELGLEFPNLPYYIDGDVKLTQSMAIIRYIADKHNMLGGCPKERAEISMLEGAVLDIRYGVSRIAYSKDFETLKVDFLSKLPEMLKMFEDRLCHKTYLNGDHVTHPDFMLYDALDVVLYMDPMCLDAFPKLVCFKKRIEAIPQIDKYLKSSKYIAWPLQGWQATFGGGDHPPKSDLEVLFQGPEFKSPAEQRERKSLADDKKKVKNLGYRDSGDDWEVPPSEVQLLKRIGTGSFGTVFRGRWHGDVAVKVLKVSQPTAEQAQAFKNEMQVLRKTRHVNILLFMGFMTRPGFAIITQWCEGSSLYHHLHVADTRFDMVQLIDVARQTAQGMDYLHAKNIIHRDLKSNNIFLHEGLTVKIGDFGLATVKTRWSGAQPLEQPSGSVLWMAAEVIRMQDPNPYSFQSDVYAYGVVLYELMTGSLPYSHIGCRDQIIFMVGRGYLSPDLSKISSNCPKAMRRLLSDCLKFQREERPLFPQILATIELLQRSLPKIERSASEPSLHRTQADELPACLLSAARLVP
T3 sequence (P04049 307-648 Y340D/Y341D): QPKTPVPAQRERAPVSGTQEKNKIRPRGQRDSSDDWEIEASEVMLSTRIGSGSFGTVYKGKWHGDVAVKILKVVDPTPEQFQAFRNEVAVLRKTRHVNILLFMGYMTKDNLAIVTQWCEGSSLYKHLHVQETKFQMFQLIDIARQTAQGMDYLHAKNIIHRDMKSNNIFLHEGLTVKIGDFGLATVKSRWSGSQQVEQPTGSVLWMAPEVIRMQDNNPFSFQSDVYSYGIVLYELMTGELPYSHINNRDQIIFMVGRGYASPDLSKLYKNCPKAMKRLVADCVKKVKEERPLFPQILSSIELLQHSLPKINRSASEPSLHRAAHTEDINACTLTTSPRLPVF

For orientation: pIC50 means the IC50 on a negative log10 scale, so that one unit is a factor of ten. Regarding `COC1(CCNC(=O)Nc2cc(-c3ccnc(-c4ccnc(NC(=O)C5CC5)c4)c3)c(C)cc2F)CC1` [Example 116], the pIC50 on A-Raf kinase is 6.30 to 7.00; at B-Raf kinase, at least 7.00; on C-Raf kinase, at least 7.00; on B-Raf (V600E) kinase, at least 7.00; with A375 cells, 5.00 to 6.00.

On to `Cc1cc(F)c(NC(=O)NCCC2(C(F)(F)F)CC2)cc1-c1cc(N2CCOCC2)nc(N2CC(N(C)C)C2)n1` [Example 30], for which the pIC50 on A-Raf kinase is under 6.00; at B-Raf kinase, under 6.00; at C-Raf kinase, 6.00 to 6.30; at B-Raf (V600E) kinase it was at least 7.00; in the experiment with A375 cells it was 5.00 to 6.00.

As for `Cc1ccc(NC(=O)NC2CCCCCC2)cc1-c1cc(OCCO)nc(N2CCOCC2)c1` [Example 13], the pIC50 was under 6.00 on A-Raf kinase; 6.30 to 7.00 at B-Raf kinase; at least 7.00 on C-Raf kinase; at least 7.00 on B-Raf (V600E) kinase; 5.00 to 6.00 in the experiment on A375 cells.

Turning to `Cc1cc(F)c(NC(=O)NCCC2(C)CC2)cc1-c1nc(NCCO)cc(N2CCOCC2)n1` [Example 31], the pIC50 on A-Raf kinase was under 6.00; on B-Raf kinase, 6.30 to 7.00; at C-Raf kinase, 6.30 to 7.00; on B-Raf (V600E) kinase, at least 7.00; in the experiment on A375 cells it was 5.00 to 6.00.

Regarding `Cc1ccc(NC(=O)N[C@H]2CCc3ccccc32)cc1-c1cc(OCCO)nc(N2CCOCC2)c1` [Example 20], the pIC50 on A-Raf kinase was under 6.00; on B-Raf kinase, 6.00 to 6.30; at C-Raf kinase, 6.30 to 7.00; at B-Raf (V600E) kinase it was at least 7.00; with A375 cells, 6.00 to 6.30.

On to `Cc1ccc(NC(=O)NCCC(C)(C)C)cc1-c1cc(-c2cnn(C)c2)nc(N2CCOCC2)c1` [Example 6], for which the pIC50 on A-Raf kinase is under 6.00; at B-Raf kinase, 6.30 to 7.00; on C-Raf kinase, 6.30 to 7.00; at B-Raf (V600E) kinase, at least 7.00; in the experiment with A375 cells it was 5.00 to 6.00.

Regarding `Cc1ccc(NC(=O)NCCC(C)(C)C)cc1-c1cc(N2CCOCC2)nc(N2CC(C)(O)C2)n1` [Example 1, 1-(3,3-dimethylbutyl)-3-(3-(2-(3-hydroxy-3-methylazetidin-1-yl)-6-morpholinopyrimidin-4-yl)-4-methylphenyl)urea], the pIC50 on A-Raf kinase was under 6.00; at B-Raf kinase, at least 7.00; at C-Raf kinase, at least 7.00; on B-Raf (V600E) kinase, at least 7.00; with A375 cells, at least 7.00.

Consider `CCNC(=O)Nc1cc(-c2cc(OCCO)nc(-c3ccnc(NC(=O)C4CC4)c3)c2)c(C)cc1F` [Example 98], for which the pIC50 is under 6.00 on A-Raf kinase; 6.30 to 7.00 at B-Raf kinase; at least 7.00 on C-Raf kinase; at least 7.00 on B-Raf (V600E) kinase; 5.00 to 6.00 in the experiment on A375 cells.

Regarding `COC(=O)Nc1cc(-c2cc(-c3cc(NC(=O)NCCC4CN(C)C4)cnc3C)cc(OCCO)n2)ccn1` [Example 183], the negative-log IC50 (pIC50) is under 6.00 at A-Raf kinase; under 6.00 at B-Raf kinase; under 6.00 at C-Raf kinase; under 6.00 on B-Raf (V600E) kinase; 5.00 to 6.00 in the experiment on A375 cells.

Turning to `Cc1cc(F)c(NC(=O)NC[C@H]2CCO2)cc1-c1cc(OCCO)nc(-c2ccnc3[nH]ncc23)c1` [Example 93], the pIC50 was under 6.00 on A-Raf kinase; under 6.00 at B-Raf kinase; under 6.00 on C-Raf kinase; under 6.00 at B-Raf (V600E) kinase; 5.00 to 6.00 with A375 cells.

As for `Cc1ccc(NC(=O)NCCC2(C)CC2)cc1-c1cc(-c2cnn(C)c2)nc(N2CCOCC2)c1` [Example 37], the pIC50 was under 6.00 on A-Raf kinase; at least 7.00 on B-Raf kinase; at least 7.00 on C-Raf kinase; at least 7.00 at B-Raf (V600E) kinase; 5.00 to 6.00 in the experiment with A375 cells.

In the case of `Cc1cc(F)c(NC(=O)NCCC2(C)CC2)cc1-c1cc(OCCO)nc(-c2ccncc2)c1` [Example 32], the pIC50 at A-Raf kinase is under 6.00; on B-Raf kinase, at least 7.00; at C-Raf kinase, at least 7.00; on B-Raf (V600E) kinase it was at least 7.00; in the experiment with A375 cells, 5.00 to 6.00.

For `Cc1cc(F)c(NC(=O)NCCC2(C(F)(F)F)CC2)cc1-c1cc(N2CCOCC2)nc(N2CC[C@H](N(C)C)C2)c1` [Example 26], the pIC50 at A-Raf kinase was under 6.00; on B-Raf kinase, 6.30 to 7.00; on C-Raf kinase it was 6.30 to 7.00; on B-Raf (V600E) kinase it was at least 7.00; in the experiment with A375 cells, 5.00 to 6.00.

Turning to `Cc1cc(F)c(NC(=O)N2CCC(C)(C#N)C2)cc1-c1cc(OCCO)nc(-c2ccnc3[nH]ncc23)c1` (centres unmarked) [Example 95], the pIC50 at A-Raf kinase is under 6.00; on B-Raf kinase it was 6.00 to 6.30; at C-Raf kinase, 6.00 to 6.30; on B-Raf (V600E) kinase, at least 7.00; in the experiment on A375 cells it was 5.00 to 6.00.

For the compound `CNc1cc(-c2cc(-c3cc(NC(=O)NCCC4(C(F)(F)F)CC4)c(F)cc3C)cc(OCCO)n2)ccn1` [Example 28], the pIC50 was under 6.00 on A-Raf kinase; 6.30 to 7.00 on B-Raf kinase; at least 7.00 on C-Raf kinase; at least 7.00 at B-Raf (V600E) kinase; 6.30 to 7.00 in the experiment on A375 cells.

As for `Cc1ccc(NC(=O)NCCC(C)(C)C)cc1-c1cc(N2CCOCC2)nc(N2CC(O)C2)n1` [Example 11], the pIC50 at A-Raf kinase was under 6.00; at B-Raf kinase it was 6.00 to 6.30; on C-Raf kinase it was 6.30 to 7.00; at B-Raf (V600E) kinase, at least 7.00; in the experiment with A375 cells it was 5.00 to 6.00.
